In the experiment the target is T1, endothiapepsin (Cryphonectria parasitica, UniProt P11838).
T1 construct: Endothiapepsin was purified from Suparen; purchased DSM Food Specialties, Heerlen, The Netherlands (kindly provided) Suparen
T1 sequence (P11838 90-419): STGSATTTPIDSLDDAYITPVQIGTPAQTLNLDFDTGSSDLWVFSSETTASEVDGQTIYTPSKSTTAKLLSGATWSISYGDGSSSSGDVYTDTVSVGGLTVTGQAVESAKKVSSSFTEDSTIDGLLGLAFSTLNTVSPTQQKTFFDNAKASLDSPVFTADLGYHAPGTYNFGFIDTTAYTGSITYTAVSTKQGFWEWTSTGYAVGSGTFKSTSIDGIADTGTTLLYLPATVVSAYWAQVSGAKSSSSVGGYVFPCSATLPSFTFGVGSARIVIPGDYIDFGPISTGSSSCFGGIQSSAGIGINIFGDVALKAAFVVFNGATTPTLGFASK
As to the kind of experiment: Fluorescence-based enzymatic inhibition assay (adapted from the HIV protease assay). The format is biochemical. To be noted: for IC50: 0.4 nM endothiapepsin, 1.8 μM substrate, pH 4.6, 2.1% DMSO, E/Z mixture, duplicate, ± SD; for ΔGexpt, experimental Gibbs free energy of binding: derived from the experimentally determined IC50 values using the Cheng–Prusoff equation; for LE (ligand efficiency): obtained from the IC50 values using the Cheng–Prusoff equation. From the text:
To determine their inhibitory potency against endothiapepsin, we subjected these acylhydrazone derivatives to a fluorescence-based enzymatic inhibition assay, adapted from the HIV protease assay.
Endothiapepsin was purified from Suparen® (kindly provided by DSM Food Specialties, Heerlen, The Netherlands) by exchanging the buffer to sodium acetate buffer (0.1 M, pH 4.6) using a Vivaspin 500 (Sartorius, Rotterdam, The Netherlands) with a molecular weight cutoff at 10,000 Da.
Stock solutions (100 mM in DMSO) were prepared for acylhydrazones 2–9 (mixture of E/Z isomers). The final reaction volume was 200 μL containing 0.4 nM endothiapepsin, 1.8 μM substrate and 2.1% DMSO. The final concentration of inhibitors was 1000 μM in the first well and subsequent half dilution in next 10 wells. In the same way, blanks were prepared using DMSO instead of the inhibitor stock solutions. As substrate, Abz–Thr–Ile–Nle-p-nitro-Phe–Gln–Arg–NH2 (purchased from Bachem, Bubendorf, Switzerland) was used for the fluorescence screening assay. The assay was performed with flat bottom 96-well microplates (purchased from Greiner Bio-One, Alphen aan den Rijn, The Netherlands) using a Synergy Mx microplate reader at an excitation wavelength of 337 nm and an emission wavelength of 414 nm. […] The assay buffer (0.1 M sodium acetate buffer, pH 4.6, containing 0.001% Tween 20) was premixed with the substrate and inhibitor; endothiapepsin was added directly before the measurement. As the substrate is a fluorogenic substrate, during measurement the fluorescence increased because of substrate hydrolysis by endothiapepsin. The initial slopes of the fluorescence in the acylhydrazone-containing wells were compared to the initial slope of the blanks for data analysis.

This is an account of results in article PMC4581293, “Structure-Based Optimization of Inhibitors of the Aspartic Protease Endothiapepsin” (International Journal of Molecular Sciences, 2015).

Each structure is given as a SMILES string.

Regarding `N[C@@H](Cc1c[nH]c2ccccc12)C(=O)N/N=C/c1ccc(C(F)(F)F)cc1` [compound 2], the IC50 (in general, the concentration needed to halve the response being measured) amounted to 7 ± 0.5 µM; the “ΔGexpt, experimental Gibbs free energy of binding” value is -7.48 kcal/mol; the “LE (ligand efficiency)” value was 0.28.

`N[C@@H](Cc1c[nH]c2ccccc12)C(=O)N/N=C/c1cccc(C(F)(F)F)c1` [compound 3]: the half-maximal inhibitory concentration (IC50) came to 244 ± 32 µM; the “ΔGexpt, experimental Gibbs free energy of binding” value was -5.38 kcal/mol; the “LE (ligand efficiency)” value was 0.20.

`N[C@@H](Cc1c[nH]c2ccccc12)C(=O)N/N=C/c1ccccc1` [compound 9]: the “ΔGexpt, experimental Gibbs free energy of binding” value was -6.31 kcal/mol and the “LE (ligand efficiency)” value was 0.27.

For the molecule `N[C@@H](Cc1c[nH]c2ccccc12)C(=O)N/N=C/c1ccccc1F` [compound 4], the IC50 amounted to 38 ± 7 µM; the “ΔGexpt, experimental Gibbs free energy of binding” value is -6.48 kcal/mol; the “LE (ligand efficiency)” value was 0.27.

On to `Cc1cccc(/C=N\NC(=O)[C@@H](N)Cc2c[nH]c3ccccc23)c1O` [compound 5], for which the IC50 turned out to be 36 ± 11 µM; the “ΔGexpt, experimental Gibbs free energy of binding” value is -6.5 kcal/mol; the “LE (ligand efficiency)” value turned out to be 0.26.

On to `N[C@@H](Cc1c[nH]c2ccccc12)C(=O)N/N=C/c1ccccc1Br` [compound 6], for which the IC50 is 54.5 ± 0.5 µM; the “ΔGexpt, experimental Gibbs free energy of binding” value was -6.26 kcal/mol; the “LE (ligand efficiency)” value is recorded as 0.26.

Consider `Cc1cccc(C)c1/C=N/NC(=O)[C@@H](N)Cc1c[nH]c2ccccc12` [compound 8], for which the IC50 was found to be 30 ± 5 µM; the “ΔGexpt, experimental Gibbs free energy of binding” value is -6.62 kcal/mol; the “LE (ligand efficiency)” value was 0.26.

For `Cc1ccccc1/C=N/NC(=O)[C@@H](N)Cc1c[nH]c2ccccc12` [compound 7], the IC50 amounted to 59 ± 4 µM; the “ΔGexpt, experimental Gibbs free energy of binding” value is -6.21 kcal/mol; the “LE (ligand efficiency)” value was 0.26.
